Values of other authors in patent US20240122889A1, “DRY POWDER COMPOSITIONS OF TREPROSTINIL PRODRUGS AND METHODS OF USE THEREOF” (Insmed Incorporated, priority 0001, published 2024).

System: conscious male guinea pigs

For CCCCC[C@H](O)CC[C@@H]1[C@H]2Cc3cccc(OCC(=O)O)c3C[C@H]2C[C@H]1O [TRE, Treprostinil], the “Threshold dose that causes cough” value (inhaled TRE given by nebulization) is listed as 1.2 μg TRE/kg body weight and the Timing of cough (nebulized, time of exposure) is listed as no more than 10 min.
